According to ChEMBL document CHEMBL3885861, “Open TG-GATES”:

Species: Rattus norvegicus
Test: Open TG-GATES - Regimen: Daily Repeat
Assay type: toxicity, organism-based, Sprague-Dawley
Parameters: regimen Daily Repeat, gender Male, age 6 weeks
Conditions: in vivo, po, 200 mg/kg, route gavage, dose level High; for APTT / Bas / Eos / Fbg / Hb / Ht / Lym / MCH / MCHC / MCV / Mono / Neu / PT / Plat / RBC / Ret / WBC: tissue Blood; for KIDNEY_L / KIDNEY_R / KIDNEY_TOTAL: tissue Kidney; for LIVER: tissue Liver; for ALP / BUN / CRE / Ca / DBIL / GLC / K / LDH / Na / PL / RALB / TBIL / TC / TG / TP / gamma-GTP / ALT / AST: tissue Plasma

CCCCc1oc2ccccc2c1C(=O)c1cc(I)c(OCCN(CC)CC)c(I)c1 [AMIODARONE]
APTT (72 h, time 3 day): 27.3 s | Bas (72 h, time 3 day): 0% | Eos (72 h, time 3 day): 1.2% | Fbg (72 h, time 3 day): 214.6 mg/dL | Hb (72 h, time 3 day): 14.1 g/dL | Ht (72 h, time 3 day): 40.9% | Lym (72 h, time 3 day): 84.6% | MCH (72 h, time 3 day): 20.9 pg | MCHC (72 h, time 3 day): 34.4% | MCV (72 h, time 3 day): 60.8 fL | Mono (72 h, time 3 day): 3.2% | Neu (72 h, time 3 day): 9.2% | PT (72 h, time 3 day): 15.9 s | Plat (72 h, time 3 day): 122.1 x10_4/uL | RBC (72 h, time 3 day): 672.8 x10_4/ul | Ret (72 h, time 3 day): 3.5% | WBC (72 h, time 3 day): 70.5 x10_2/uL | KIDNEY_L (72 h, time 3 day): 0.9 g | KIDNEY_R (72 h, time 3 day): 0.9 g | KIDNEY_TOTAL (72 h, time 3 day): 1.8 g | LIVER (72 h, time 3 day): 9 g | ALP (72 h, time 3 day): 1623.2 IU/L | BUN (72 h, time 3 day): 14.2 mg/dL | CRE (72 h, time 3 day): 0.3 mg/dL | Ca (72 h, time 3 day): 10 mg/dL | DBIL (72 h, time 3 day): 0.062 mg/dL | GLC (72 h, time 3 day): 193.2 mg/dL | K (72 h, time 3 day): 3.6 meq/L | LDH (72 h, time 3 day): 222.2 IU/L | Na (72 h, time 3 day): 140.2 meq/L | PL (72 h, time 3 day): 181.6 mg/dL | RALB (72 h, time 3 day): 3.4 g/dL | TBIL (72 h, time 3 day): 0.1 mg/dL | TC (72 h, time 3 day): 135 mg/dL | TG (72 h, time 3 day): 33.2 mg/dL | TP (72 h, time 3 day): 5.7 g/dL | gamma-GTP (72 h, time 3 day): 0.8 IU/L | TERMINAL_BW ([…], time 7 day): 210.1 g | TERMINAL_BW ([…], time 14 day): 194.8 g | TERMINAL_BW ([…], time 28 day): 228 g | APTT ([…], time 7 day): 33.7 s | Bas ([…], time 7 day): 0% | Eos ([…], time 7 day): 0.8% | Fbg ([…], time 7 day): 202.2 mg/dL | Hb ([…], time 7 day): 14.6 g/dL | Ht ([…], time 7 day): 41.9% | Lym ([…], time 7 day): 82.8% | MCH ([…], time 7 day): 21.2 pg | MCHC ([…], time 7 day): 34.9% | MCV ([…], time 7 day): 60.7 fL | Mono ([…], time 7 day): 2.6% | Neu ([…], time 7 day): 13.2% | PT ([…], time 7 day): 17.5 s | Plat ([…], time 7 day): 127 x10_4/uL | RBC ([…], time 7 day): 690.2 x10_4/ul | Ret ([…], time 7 day): 1.4% | WBC ([…], time 7 day): 119 x10_2/uL | APTT ([…], time 14 day): 26.9 s | Bas ([…], time 14 day): 0% | Eos ([…], time 14 day): 0.8% | Fbg ([…], time 14 day): 180.2 mg/dL | Hb ([…], time 14 day): 16 g/dL | Ht ([…], time 14 day): 44.7% | Lym ([…], time 14 day): 68% | MCH ([…], time 14 day): 20 pg | MCHC ([…], time 14 day): 35.9% | MCV ([…], time 14 day): 55.6 fL | Mono ([…], time 14 day): 1.6% | Neu ([…], time 14 day): 29.6% | PT ([…], time 14 day): 15 s | Plat ([…], time 14 day): 109.5 x10_4/uL | RBC ([…], time 14 day): 803.6 x10_4/ul | Ret ([…], time 14 day): 0.8% | WBC ([…], time 14 day): 77.9 x10_2/uL | APTT ([…], time 28 day): 27.4 s | Bas ([…], time 28 day): 0% | Eos ([…], time 28 day): 0.8% | Fbg ([…], time 28 day): 215.8 mg/dL | Hb ([…], time 28 day): 15.6 g/dL | Ht ([…], time 28 day): 42.8% | Lym ([…], time 28 day): 64% | MCH ([…], time 28 day): 19 pg | MCHC ([…], time 28 day): 36.4% | MCV ([…], time 28 day): 52.2 fL | Mono ([…], time 28 day): 2% | Neu ([…], time 28 day): 32% | PT ([…], time 28 day): 17 s | Plat ([…], time 28 day): 159.1 x10_4/uL | RBC ([…], time 28 day): 819 x10_4/ul | Ret ([…], time 28 day): 2.1% | WBC ([…], time 28 day): 96 x10_2/uL | KIDNEY_L ([…], time 7 day): 0.9 g | KIDNEY_R ([…], time 7 day): 0.9 g | KIDNEY_TOTAL ([…], time 7 day): 1.9 g | KIDNEY_L ([…], time 14 day): 0.9 g | KIDNEY_R ([…], time 14 day): 0.9 g | KIDNEY_TOTAL ([…], time 14 day): 1.7 g | KIDNEY_L ([…], time 28 day): 0.9 g | KIDNEY_R ([…], time 28 day): 1 g | KIDNEY_TOTAL ([…], time 28 day): 1.9 g | LIVER ([…], time 7 day): 9.6 g | LIVER ([…], time 14 day): 9.1 g | ALP ([…], time 7 day): 1316.2 IU/L | ALT ([…], time 7 day): 31 IU/L | AST ([…], time 7 day): 56.4 IU/L | BUN ([…], time 7 day): 13.6 mg/dL | CRE ([…], time 7 day): 0.4 mg/dL | Ca ([…], time 7 day): 10 mg/dL | DBIL ([…], time 7 day): 0.068 mg/dL | GLC ([…], time 7 day): 184.4 mg/dL | K ([…], time 7 day): 4 meq/L | LDH ([…], time 7 day): 215.6 IU/L | Na ([…], time 7 day): 139.2 meq/L | PL ([…], time 7 day): 182.8 mg/dL | RALB ([…], time 7 day): 3.4 g/dL | TBIL ([…], time 7 day): 0.1 mg/dL | TC ([…], time 7 day): 144.8 mg/dL | TG ([…], time 7 day): 24.6 mg/dL | TP ([…], time 7 day): 5.8 g/dL | gamma-GTP ([…], time 7 day): 1.2 IU/L | ALP ([…], time 14 day): 1457.8 IU/L | ALT ([…], time 14 day): 44.8 IU/L | AST ([…], time 14 day): 59.8 IU/L | BUN ([…], time 14 day): 16.6 mg/dL | CRE ([…], time 14 day): 0.5 mg/dL | Ca ([…], time 14 day): 9.6 mg/dL | DBIL ([…], time 14 day): 0.064 mg/dL | GLC ([…], time 14 day): 200.8 mg/dL | K ([…], time 14 day): 3.6 meq/L | LDH ([…], time 14 day): 176.6 IU/L | Na ([…], time 14 day): 139.4 meq/L | PL ([…], time 14 day): 190.4 mg/dL | RALB ([…], time 14 day): 3.4 g/dL | TBIL ([…], time 14 day): 0.1 mg/dL | TC ([…], time 14 day): 163.4 mg/dL | TP ([…], time 14 day): 5.7 g/dL | gamma-GTP ([…], time 14 day): 1.6 IU/L | ALP ([…], time 28 day): 1315 IU/L | ALT ([…], time 28 day): 39.8 IU/L | AST ([…], time 28 day): 82 IU/L | BUN ([…], time 28 day): 15.5 mg/dL | CRE ([…], time 28 day): 0.5 mg/dL | Ca ([…], time 28 day): 9.4 mg/dL | DBIL ([…], time 28 day): 0.065 mg/dL | GLC ([…], time 28 day): 169 mg/dL | K ([…], time 28 day): 3.9 meq/L | LDH ([…], time 28 day): 184 IU/L | Na ([…], time 28 day): 139.8 meq/L | PL ([…], time 28 day): 177 mg/dL | RALB ([…], time 28 day): 3.3 g/dL | TBIL ([…], time 28 day): 0.1 mg/dL | TC ([…], time 28 day): 127.5 mg/dL | TG ([…], time 28 day): 26.5 mg/dL | TP ([…], time 28 day): 5.8 g/dL | gamma-GTP ([…], time 28 day): 1.2 IU/L
